Source: US7358233B2, “Tetronic acid derivative” (Toudai TLO, Ltd, priority 2001, dated 2008)

Tests used:
HeLa cells = assay: Direct growth suppression, MTT method; format: cell-based; conditions: Homo sapiens, 24 hours, read-out: IC50 of VST
Description: (§1) In this Example, HeLa cells and various other culture cells were used to measure the survival rate during the above-mentioned reporter analysis and VST addition. Specifically, in addition to HeLa cells (human cervical cancer cells), MCF-7 (human breast cancer cells), PC12NH (rat pheochromocytoma), MDA-MB-231 (human breast cancer cells), TIG-3 (human normal fibroblast cells), HeLa 786C cells (human cervical cancer cells), Saos-2 (telomerase and p53-deficient human cancer cells) and SUSM-1 (telomerase-deficient human cancer cells) were used.
(§2) The direct growth suppression activity of VST on these cells was measured using the MTT method. 100 μL cell suspension (5×10^4/mL) of each of the above-mentioned cells was dispensed into each well of a 96-well plate and cultured for 6 hours at 37° C. After culturing, VST solution diluted stepwise as in Example 4 was added thereto and cultured for another 24 hours. After culturing for 24 hours, 0.05 g/mL MTT solution (10 μL) was added to each well and incubation was performed at 37° C. for 4 hours. The medium was then removed, DMSO (100 μL) was added, and the absorbance at 530 nm was measured (FIG. 8).

MDA-MB-231 = assay: Direct growth suppression, MTT method; format: cell-based; conditions: Homo sapiens, 24 hours, read-out: IC50 of VST
Description: as §1, §2

PC12NH = assay: Direct growth suppression, MTT method; format: cell-based; conditions: Rattus norvegicus, 24 hours, read-out: IC50 of VST
Description: as §1, §2

TIG-3 = assay: Direct growth suppression, MTT method; format: cell-based; conditions: Homo sapiens, 24 hours, read-out: IC50 of VST
Description: as §1, §2

[1] = test system: HeLa cells and various other culture cells; assay: Survival rate of a variety of cells, MTT method (all cell lines together); format: cell-based
Description: as §1, §2

GRP78 [2] = assay: Western blotting of endogenous GRP78 induction in HeLa78C6 cells; format: cell-based, human
Description: HeLa78C6 cells were cultured in DMEM media, 30 min before tunicamycin addition each concentration of VST was added, followed by 2 μg/mL of tunicamycin, and treated for 18 hours. The cells were collected, and the induction of GRP78 was detected by Western blotting using anti-GRP78 antibody (Stressgene). As a result, it was confirmed that VST inhibits not only the reporter assay, but also the induction of endogenous molecular chaperone GRP78 at the protein level in a concentration-dependent manner (FIG. 9A).
Furthermore, HeLa78C6 was cultured by the above-mentioned culturing method and pretreated for 30 min with 50 μM VST. Then, the cells were collected at each time point after the addition of tunicamycin to detect the GRP78 protein level by Western blotting.
Moreover, the GRP78 level 18 hours after the treatment with each of the indicated endoplasmic reticulum stress-inducing agents was detected using a method similar to that used for FIG. 9A.

GRP78 [3] = assay: Western blotting of GRP78 induction in HT-29 cells under endoplasmic reticulum stress; format: cell-based; conditions: pretreated 30 min, 18 hours
Description: (§3) Specifically, […] HT-29 and HT1080 were cultured in RPMI1640 medium and pretreated for 30 min with 3 μM and 30 μM VST. Next, the GRP78 level was detected 18 hours after each endoplasmic reticulum stress treatment by Western blotting (FIG. 10). […] This phenomenon could be elucidated for the first time by the use of VST.

GRP78 [4] = assay: Western blotting of GRP78 induction in HT1080 cells under endoplasmic reticulum stress; format: cell-based; conditions: pretreated 30 min, 18 hours
Description: as §3

HSP70 heat shock protein = assay: Transcriptional activity of HSP70 (no data shown); format: cell-based
HT-29 cells [5] = assay: Colony formation of HT-29 cells under endoplasmic reticulum stress conditions; format: cell-based
Description: HT-29 cells were pretreated for 30 min with each concentration of VST, and then subjected to stress treatment with each of the endoplasmic reticulum stresses, i.e., tunicamycin, calcium ionophore A23187, glucose starvation and 2-DG, for 18 hours. Subsequently, the cells were cultured for 1 week […], and then colonies were measured by crystal violet staining.

HT1080 cells = assay: Apoptosis (sub-G1) of HT1080 cells by propidium iodide FACS analysis; format: cell-based; conditions: for sub-G1 stage induction (apoptosis): 3 μM VST
Description: HT1080 cells were pretreated for 30 min with 3 μM of VST, after fixing the cells the nuclei were stained with propidium iodide for FACS analysis. […] In contrast, only a very limited number of HT1080 cells underwent apoptosis with glucose starvation treatment alone.

HT-29 cells [6] = assay: Antitumor effect against HT-29 cells transplanted into nude mice; format: in vivo
Description: The antitumor effect of VST at the animal level was examined. Specifically, HT-29 cells were transplanted into nude mice and tumor was grown to 100 mm^3. Subsequently, each concentration of VST was administered through the tail vein, progress of cancer was followed each day thereafter, and the tumor was enucleated to compare its size. […] Furthermore, the combined effect with CDDP (cisplatin) was examined.

XBP1 = assay: Formation of spliced XBP1 in HT1080 transfected with Flag-tagged XBP1; format: cell-based
Description: To elucidate the mechanism of VST to express its activity, the effect of VST on several factors that function in the pathway of endoplasmic reticulum stress response was examined. In particular, Ire1α-XBP1 pathway, a pathway of endoplasmic reticulum stress response and is widely conserved from yeast to mammalian cells, was examined. XBP1 spliced at the mRNA level from a precursor (XBP1 (U)) by Ire1α, that is activated in response to endoplasmic reticulum stress turns into the activated form (XBP1(S)), transfers to the nucleus, and induces transcription of GRP78 by binding to the GRP78 promoter, ERSE.
A plasmid wherein a Flag tag is linked to the cloned XBP1 was transfected into HT1080, and the cell was pretreated for 30 min with VST. 6 hours after imposing each stress, proteasome inhibitor MG132 was added and the cells were cultured for another 6 hours to prepare samples. The full length and spliced XBP1 were detected in the samples using anti-Flag antibody. Examination on the formation of the spliced form XBP1 due to 2-DG treatment is shown in FIG. 16A and that due to tunicamycin treatment is shown in FIG. 16B. Since the spliced form of XBP1 is very rapidly degraded by proteasomes, its detection is difficult. To overcome this problem, proteasome inhibitor MG132 was added. […]

CC/C1=C\C(CO)CC(C)C(OC2CC(O)C(OC3CC(OC)C(OC4CC(O)C(O)C(C)O4)C(C)O3)C(C)O2)C(C)CCCC2(C)C=C(C)C(C)CC23OC(=O)C(=C3O)C(=O)C2(CC)C1C(C)=CC1C(O)CC(=O)C(C)C12 (centres unmarked) [VST, versipelostatin]
IC50 (HeLa cells): > 100 µM | IC50 (MDA-MB-231): > 100 µM | IC50 (PC12NH): > 100 µM | IC50 (TIG-3): > 100 µM | degree of decrease of survival rate ([1]; VST 100 μg/mL, many cell lines): ≤ 50% | survival rate ([1]; VST approximately 10 μg/mL): slight decrease was observed in a few cell lines | survival rate ([1]; VST final concentration of 1 μg/mL, all cell lines): No decrease in the survival rate was observed | GRP78 protein level, time course (GRP78 [2]; 50 μM VST pretreatment 30 min, 12 to 18 hours after tunicamycin 2 μg/mL (FIG. 9B)): inhibited | selectivity of the effect among endoplasmic reticulum stresses (GRP78 [2]; 18 hours (FIG. 9C)): higher selectivity against 2-deoxyglucose | induction of GRP78 by each endoplasmic reticulum stress-inducing agent (GRP78 [2]; 18 hours after treatment (FIG. 9C)): inhibited the induction of GRP78 against any of the endoplasmic reticulum stresses | induction of endogenous GRP78 at the protein level (GRP78 [2]; each concentration of VST 30 min before tunicamycin 2 μg/mL, 18 hours (FIG. 9A)): inhibits | induction of GRP78 by 2-DG (GRP78 [3]; 3 μM VST): inhibits the induction of GRP78 | GRP78 induction due to tunicamycin treatment (GRP78 [3]; 30 μM VST): did not inhibit GRP78 induction | induction of GRP78 by 2-DG (GRP78 [4]; 3 μM VST): inhibits the induction of GRP78 | GRP78 induction due to tunicamycin treatment (GRP78 [4]; 30 μM VST): did not inhibit GRP78 induction | influence on the transcriptional activity of HSP70 heat shock protein (HSP70 heat shock protein): no influence | cell growth suppression (colony formation) (HT-29 cells [5]; 2-DG treatment 18 hours, 1 week culture (FIG. 11D)): strong cell growth suppression effect | cell growth suppression (colony formation) (HT-29 cells [5]; glucose starvation 18 hours, 1 week culture (FIG. 11C)): strong cell growth suppression effect | cell growth suppression (colony formation) (HT-29 cells [5]; tunicamycin treatment 18 hours, 1 week culture (FIG. 11A)): did not show suppression on cell growth | sub-G1 stage induction (apoptosis) (HT1080 cells; glucose starvation condition, after 48 hours): strong sub-G1 stage induction | sub-G1 stage induction (apoptosis) (HT1080 cells; in the presence of glucose): did not show any effect | induction of apoptosis, sequential changes (HT1080 cells; glucose starvation conditions (FIG. 13)): time-dependent manner | antitumor effect (tumor size) (HT-29 cells [6]; HT-29 tumor grown to 100 mm^3 in nude mice, VST through the tail vein (FIG. 15)): showed antitumor effect, although the effect was not as strong as cisplatin | combined effect with CDDP (cisplatin) (HT-29 cells [6]; HT-29 tumor in nude mice): no effect due to the combination could be confirmed | formation of spliced XBP1 (XBP1; 2-DG treatment, MG132 added (FIG. 16A)): inhibited | formation of spliced XBP1 (XBP1; tunicamycin treatment, MG132 added (FIG. 16B)): did not inhibit the splicing of XBP1
